# Assay results taken from ChEMBL document CHEMBL1201862, “PubChem BioAssay data set” (2004).
# The source made the active and inactive calls. For most assays here, no stated cut-off is given here; in the data, actives have a measured EC50 and inactives only a lower limit.
# Legend:
# [1] = biological target: T1, Calpain-2 catalytic subunit (Sus scrofa, UniProt P43367); test: m-calpain protease blockers, concentration series – biochemical, fluorogenic peptide substrate, dose response (AID 1420); assay type: functional
# T1 sequence (P43367 whole entry): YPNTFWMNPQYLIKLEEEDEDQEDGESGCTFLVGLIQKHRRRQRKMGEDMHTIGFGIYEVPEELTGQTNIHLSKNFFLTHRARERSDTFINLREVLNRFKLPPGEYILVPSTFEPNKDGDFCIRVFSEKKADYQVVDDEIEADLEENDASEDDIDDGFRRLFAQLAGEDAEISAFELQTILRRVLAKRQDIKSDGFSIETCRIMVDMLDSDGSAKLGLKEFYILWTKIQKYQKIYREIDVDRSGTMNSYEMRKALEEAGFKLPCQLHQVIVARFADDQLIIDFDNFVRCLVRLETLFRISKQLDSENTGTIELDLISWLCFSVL
# [2] = biological target: Heat shock protein HSP 90-alpha (Homo sapiens, UniProt P07900); assay type: functional, organism-based
# [3] = biological target: T2, Heat shock factor protein 1 (Mus musculus, UniProt P38532); test: enhancement of HSF1-driven luciferase signal – cell-based, NIH3T3, luminescence, dose retest, confirmation (AID 435004); assay type: functional;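 further: stress induced by proteasome inhibitor MG132 added 30 min after compound; luciferase reporter driven by HSF1 response element in NIH3T3 cells; actives raise luminescence as potentiators of the MG132 stress response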
# T2 sequence (P38532 whole entry): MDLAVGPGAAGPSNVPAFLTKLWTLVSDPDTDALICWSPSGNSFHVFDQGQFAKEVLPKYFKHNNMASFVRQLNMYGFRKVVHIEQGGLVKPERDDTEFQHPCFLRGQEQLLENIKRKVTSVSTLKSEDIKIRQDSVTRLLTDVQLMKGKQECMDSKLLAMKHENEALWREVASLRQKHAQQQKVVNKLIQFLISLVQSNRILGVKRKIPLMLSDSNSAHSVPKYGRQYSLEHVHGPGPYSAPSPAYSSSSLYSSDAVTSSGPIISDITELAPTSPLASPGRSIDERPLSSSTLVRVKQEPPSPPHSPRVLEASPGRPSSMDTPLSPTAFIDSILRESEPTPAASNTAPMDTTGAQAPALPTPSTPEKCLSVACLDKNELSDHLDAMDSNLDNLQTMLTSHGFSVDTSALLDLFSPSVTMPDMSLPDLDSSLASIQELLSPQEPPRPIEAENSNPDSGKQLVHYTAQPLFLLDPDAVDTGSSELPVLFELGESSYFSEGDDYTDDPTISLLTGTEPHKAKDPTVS
# [4] = biological target: Luciferin 4-monooxygenase (Photinus pyralis, UniProt P08659); test: inhibition of purified Photinus pyralis luciferase – biochemical, luminescence, dose response (AID 1891)
# Chain of Luciferin 4-monooxygenase (P08659 whole entry): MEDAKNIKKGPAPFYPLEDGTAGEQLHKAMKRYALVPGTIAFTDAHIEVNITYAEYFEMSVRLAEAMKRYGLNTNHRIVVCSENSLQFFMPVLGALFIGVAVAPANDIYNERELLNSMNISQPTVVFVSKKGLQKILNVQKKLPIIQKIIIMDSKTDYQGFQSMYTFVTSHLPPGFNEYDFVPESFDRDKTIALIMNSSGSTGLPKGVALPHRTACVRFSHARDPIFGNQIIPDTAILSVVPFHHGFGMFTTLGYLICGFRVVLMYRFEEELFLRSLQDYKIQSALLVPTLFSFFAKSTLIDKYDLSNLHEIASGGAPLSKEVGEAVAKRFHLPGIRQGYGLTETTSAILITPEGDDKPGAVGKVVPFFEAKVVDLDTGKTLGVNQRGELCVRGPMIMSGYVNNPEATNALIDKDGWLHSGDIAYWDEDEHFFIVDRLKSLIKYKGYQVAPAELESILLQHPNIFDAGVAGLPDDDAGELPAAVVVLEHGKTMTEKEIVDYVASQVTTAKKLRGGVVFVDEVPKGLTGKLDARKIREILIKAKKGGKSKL
# [5] = Luminescence Cell-Based Dose Confirmation HTS to Identify Inhibitors of Platelet Dense Granule Release. [Related pubchem assays: 1663 (Primary HTS), 1678 (Summary of Project)]; assay type: functional
# [6] = NIH-3T3 fibroblast cytotoxicity, dose response, cytotoxicity control, cell-based, fluorescence, Alamar Blue, secondary assay (AID 2327); assay type: functional;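 further: NIH-3T3 mouse fibroblasts cultured with fluconazole at 8 µg/mL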
# BJ [7] = test: BJ-TERT fibroblast viability loss – cell-based, RAS-independent, luminescence, dose response (AID 1933); assay type: functional; settings: Homo sapiens
# BJ [8] = test: cells; assay type: functional, cell-based; settings: Homo sapiens
# [9] = fluconazole-exposed Candida albicans growth modulators – fluorescence, retest, confirmation (AID 2467); assay type: functional, cell-based
# BJ [10] = test: BJ-TERT-LT-ST fibroblast viability loss – cell-based, RAS-independent, luminescence, dose response (AID 1935); assay type: functional; settings: Homo sapiens;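 further: BJ fibroblasts immortalized with TERT plus LT and ST oncogenes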
# [11] = DRD fibroblast viability loss – cell-based, non-viral oncogenic, luminescence, dose response (AID 1934); assay type: functional; settings: Homo sapiens
# [12] = biological target: T3, Ubiquitin-conjugating enzyme E2 N (Homo sapiens, UniProt P61088); assay type: functional;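 further: Dose-response confirmation in a TR-FRET assay detecting UBC13-driven polyubiquitin chain formation, inhibition measured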
# T3 sequence (P61088 whole entry): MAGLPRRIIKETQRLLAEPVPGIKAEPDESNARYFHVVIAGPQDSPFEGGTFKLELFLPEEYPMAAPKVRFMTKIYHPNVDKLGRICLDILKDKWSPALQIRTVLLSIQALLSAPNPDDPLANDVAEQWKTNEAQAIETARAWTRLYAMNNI
# INS1 = test: INS-1E survival protection against cytokine death – cell-based, luminescence, retest, dose response (AID 449756); assay type: functional; settings: Rattus norvegicus;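 further: cell death triggered by IL-1 beta plus TNF-alpha plus IFN-gamma mixture; protective hits raise ATP signal compared with cytokine alone wells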
# [13] = Luminescence Cell-Based Dose Response HTS to Identify Activators of Luciferase Translation or Activity in H4 […] Cells. [Related pubchem assays: 1829 (Project Summary), 1814 (Primary HTS)]; assay type: functional
# H4 = test: Luminescence Cell-Based Dose Response HTS to Identify Activators of 5'UTR Stem-Loop Driven Prion Protein mRNA Translation in H4 Neuroglioblastoma Cells. [Related pubchem assays: 1829 (Project Summary), 1814 (Primary HTS)]; assay type: functional; settings: Homo sapiens
# [14] = biological target: T2, Heat shock factor protein 1; test: decrease of HSF1-responsive luciferase luminescence – cell-based, NIH3T3, dose retest, confirmation (AID 2382); assay type: functional;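 further: NIH3T3 fibroblasts with HSF1-driven luciferase reporter stressed by proteasome inhibitor MG132; luminescence from HSF1-driven luciferase expression after 8 hours of MG132 stress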
# Large T antigen = Large T antigen (Simian virus 40, UniProt P03070); assay type: functional, Betapolyomavirus macacae;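 further: Confirmatory-stage PubChem screen for compounds that inhibit SV40 T antigen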
# Chain of Large T antigen (P03070 whole entry, the tested form may be a part): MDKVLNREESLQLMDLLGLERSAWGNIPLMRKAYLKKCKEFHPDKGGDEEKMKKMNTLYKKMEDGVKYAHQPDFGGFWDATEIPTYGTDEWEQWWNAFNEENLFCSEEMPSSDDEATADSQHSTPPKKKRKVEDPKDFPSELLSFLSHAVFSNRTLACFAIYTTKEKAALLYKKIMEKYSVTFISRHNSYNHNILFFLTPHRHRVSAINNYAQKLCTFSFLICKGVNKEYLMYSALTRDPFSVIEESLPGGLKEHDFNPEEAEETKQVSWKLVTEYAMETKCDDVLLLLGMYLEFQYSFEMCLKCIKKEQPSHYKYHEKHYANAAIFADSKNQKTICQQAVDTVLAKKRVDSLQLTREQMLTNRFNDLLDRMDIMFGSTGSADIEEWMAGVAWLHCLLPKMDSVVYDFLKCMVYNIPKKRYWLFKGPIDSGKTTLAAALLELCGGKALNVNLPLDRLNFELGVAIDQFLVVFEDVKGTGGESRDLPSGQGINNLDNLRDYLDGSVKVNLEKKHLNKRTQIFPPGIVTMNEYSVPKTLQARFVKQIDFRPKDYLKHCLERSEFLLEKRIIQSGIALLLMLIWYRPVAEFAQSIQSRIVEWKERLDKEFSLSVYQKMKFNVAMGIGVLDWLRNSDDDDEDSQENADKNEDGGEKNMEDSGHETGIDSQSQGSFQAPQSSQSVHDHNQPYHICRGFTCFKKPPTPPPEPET
# [15] = biological target: T4, RNA-binding protein pos-1 (Caenorhabditis elegans, UniProt G5EF15); test: disruptors of C. elegans POS-1 RNA interaction – biochemical, fluorescence polarization, dose response (AID 1964);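 further: purified POS-1 fused to maltose binding protein made in E. coli; potency of compounds blocking POS-1 binding to fluorescent RNA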
# T4 sequence (G5EF15 whole entry): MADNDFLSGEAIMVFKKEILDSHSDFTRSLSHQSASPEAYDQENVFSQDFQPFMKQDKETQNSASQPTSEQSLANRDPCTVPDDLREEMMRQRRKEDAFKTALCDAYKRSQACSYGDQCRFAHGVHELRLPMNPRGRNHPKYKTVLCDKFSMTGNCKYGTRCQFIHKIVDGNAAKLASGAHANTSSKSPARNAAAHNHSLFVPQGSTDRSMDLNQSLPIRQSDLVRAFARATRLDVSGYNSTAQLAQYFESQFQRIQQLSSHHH
# [16] = biological target: T5, Zinc finger protein mex-5 (Caenorhabditis elegans, UniProt Q9XUB2); test: potency of MEX-5 RNA-binding blockers – biochemical, C. elegans, fluorescence polarization, dose response (AID 1960)
# T5 sequence (Q9XUB2 whole entry): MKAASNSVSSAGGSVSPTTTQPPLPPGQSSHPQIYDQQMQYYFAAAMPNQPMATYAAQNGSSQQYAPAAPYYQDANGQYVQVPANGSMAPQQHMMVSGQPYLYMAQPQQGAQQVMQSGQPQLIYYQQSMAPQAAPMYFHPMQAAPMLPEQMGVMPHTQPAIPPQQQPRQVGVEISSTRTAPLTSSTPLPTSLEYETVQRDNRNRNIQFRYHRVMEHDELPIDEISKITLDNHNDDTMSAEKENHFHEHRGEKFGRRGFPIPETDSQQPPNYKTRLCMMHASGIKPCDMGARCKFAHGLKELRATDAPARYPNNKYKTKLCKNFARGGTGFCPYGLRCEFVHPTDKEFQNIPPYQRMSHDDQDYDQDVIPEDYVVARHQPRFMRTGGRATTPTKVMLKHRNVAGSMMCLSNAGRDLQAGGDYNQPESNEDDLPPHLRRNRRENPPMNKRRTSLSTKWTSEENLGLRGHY
compound,measurement,setting,value
O=C(NC1CCCCC1)C1c2ccccc2C(=O)N1Cc1ccc2c(c1)OCO2 (configuration not stated),IC50,[1],20.2 µM (not active)
O=C1c2ccccc2C(=O)N1CCCC(=O)N1CCCc2ccccc21,IC50,[1],> 50 µM (not active)
CCn1c(CNc2ccc(Cl)cc2)nnc1SCc1ccccc1,AC50,[2],1.57 µM (active)
CCOC(=O)c1ccc(N2C(=O)CC(N3CCC(Nc4ccc(F)cc4)CC3)C2=O)cc1 (configuration not stated),EC50,[3],> 260 µM (inactive)
same,AC50,[2],3.01 µM (active)
CCNc1nc(NC#N)nc(SCC(=O)OCC)n1,EC50,[4],> 112 µM (not active)
same,EC50,[5],> 112 µM (not active)
CCCCSc1nnc(-c2ccccc2)c2ccccc12,IC50,[1],9.31 µM (not active)
Cc1noc(/C=C/c2ccccn2)c1[N+](=O)[O-],EC50,[6],3.04 µM (inconclusive)
same,EC50,BJ [7],8.5 µM (active)
same,EC50,BJ [8],24.5 µM (inconclusive)
same,EC50,[9],2.97 µM (active)
same,EC50,BJ [10],9.6 µM (active)
same,EC50,[11],9.44 µM (active)
Cc1ccc(C(=O)NCCCNCCCN(C)C)cn1,IC50,[12],> 20 µM (inactive)
Cc1ccc(C(=O)N/C(=C\c2ccc(-c3ccccc3[N+](=O)[O-])o2)C(=O)NCCCN2CCOCC2)cc1,AC50,INS1,6.33 µM (active)
CCc1ccc(-c2cc3c(=O)n(CC(=O)NCCCN4CCC(Cc5ccccc5)CC4)nc(C)n3n2)cc1,IC50,[12],> 20 µM (inactive)
COc1ccc(C(CNC(=O)c2ccc(-c3nc4ccccc4s3)o2)N2CCCC2)cc1 (configuration not stated),IC50,[12],> 20 µM (inactive)
CCCCCCCCNC(=O)c1ccc(C)cc1,IC50,[1],10.1 µM (not active)
CC(C)(C)c1ccc(CNc2ccc([N+](=O)[O-])cn2)cc1,IC50,[1],5.15 µM (active)
CCN(CC)S(=O)(=O)c1cc(OCC(N)=O)c(C)cc1Cl,EC50,[4],> 112 µM (not active)
same,EC50,[5],> 112 µM (not active)
O=c1cc(CN2CCN(c3ccccc3O)CC2)nc2sccn12,EC50,[4],> 112 µM (not active)
same,EC50,[5],53.2 µM (active)
CCOc1ccc(N2C(=O)/C(=C/c3ccccc3)N=C2SC)cc1,EC50,[13],0.135 µM (active)
same,EC50,H4,108 µM (active)
CSc1ccc(/C=C2\C(=N)N3N=C(CC(=O)N4CCOCC4)SC3=NC2=O)cc1,EC50,[4],> 112 µM (not active)
same,EC50,[5],> 112 µM (not active)
COc1ccc(N2CCN(CCCn3c(=S)[nH]c4ncccc4c3=O)CC2)cc1,EC50,BJ [7],> 150 µM (not active)
same,EC50,[14],> 195 µM (not active)
same,EC50,BJ [8],44.2 µM (active)
same,EC50,BJ [10],> 150 µM (not active)
same,EC50,[11],58.9 µM (active)
Nc1cc(Oc2cccnc2)cc([N+](=O)[O-])c1,IC50,[1],> 50 µM (not active)
O=C(Cc1cn(Cc2cccc(Cl)c2)c2ccccc12)N1CCCC1,IC50,[1],17.1 µM (not active)
Cc1ccc(-c2nnc(Nc3ccc(O)cc3)c3ccccc23)cc1S(=O)(=O)NCCO,IC50,Large T antigen,13.2 µM (active)
Cc1ccc(S(=O)(=O)NCC23C=CC(O2)C2C(=O)N(c4ccccc4)C(=O)C23)cc1 (configuration not stated),AC50,[2],17.7 µM (active)
O=C(Nc1nccs1)C1CCN(S(=O)(=O)c2ccc(F)cc2)CC1,EC50,[4],> 112 µM (not active)
same,EC50,[5],18.6 µM (active)
O=C(Nc1ccc(F)cc1)C1CCCCC1,EC50,[4],> 112 µM (not active)
same,EC50,[5],> 112 µM (not active)
CN(C)CCCNC(=O)C(=O)NCC1OCCN1S(=O)(=O)c1cccs1 (configuration not stated),IC50,[12],> 20 µM (inactive)
CC1=Nc2cc(C(=O)NCCCOC(C)C)ccc2Sc2ccc(C)cc21,EC50,BJ [7],2.72 µM (active)
same,EC50,BJ [8],3.85 µM (inconclusive)
same,EC50,BJ [10],2.75 µM (active)
same,EC50,[11],2.86 µM (active)
O=C(CSc1nc2ccccc2c(=O)n1-c1ccccc1)N1CCc2ccccc2C1,AC50,INS1,3.61 µM (active)
N#Cc1ccsc1NC(=O)C1CCN(C(=O)c2ccc(F)cc2)CC1,IC50,[12],> 20 µM (inactive)
COc1ccc(C(=O)N2CCCc3ccccc32)cc1,EC50,[4],> 112 µM (not active)
same,EC50,[5],> 112 µM (not active)
Cc1cccc(Oc2cc(N)cc([N+](=O)[O-])c2)c1,IC50,[1],> 50 µM (not active)
CCOc1ncccc1C(=O)N1CCN(c2cccc(C)c2C)CC1,EC50,BJ [7],0.541 µM (active)
same,EC50,BJ [8],37.3 µM (inconclusive)
same,EC50,BJ [10],0.349 µM (inconclusive)
same,EC50,[11],0.458 µM (active)
FC(F)(F)c1cc(CCN2CCNC[C@@H]2c2ccccc2)cc(C(F)(F)F)c1,IC50,[12],> 20 µM (inactive)
COCCNC(=S)N/N=C(\C)c1ccc(O)cc1,IC50,Large T antigen,10.8 µM (active)
Cc1ccc(/C=N/NC(=O)c2csc3c2CCCC3)cc1,EC50,BJ [7],2.46 µM (active)
same,EC50,BJ [8],54.1 µM (active)
same,EC50,BJ [10],93.4 µM (active)
same,EC50,[11],1.9 µM (active)
C(=N\Nc1nc2ccccc2[nH]1)/c1cccs1,IC50,Large T antigen,16.9 µM (active)
C/N=C1\S/C(=C\c2ccc(O)c(OC)c2)C(=O)N1C,EC50,[15],> 300 µM (not active)
same,EC50,[16],> 300 µM (not active)
same,IC50,Large T antigen,11.1 µM (active)
COc1cc(/C=N/NC(N)=O)ccc1OCC(=O)N1C(C)CCCC1C (configuration not stated),EC50,[4],> 112 µM (not active)
same,EC50,[5],5.74 µM (active)
